Assay type in all cases: cell-based, human
The subject of assay [1] is Interleukin (IL)6. The assay is described as follows: HaCaT keratinocytes, base line production of IL6 (no TNFα), Experiment 2. Here is the method:
(§1) In a second assay, the human keratinocyte cell line HaCat was stimulated with the inflammatory cytokine TNFα and the release of Interleukin (IL)6 into the medium was analysed with a commercially available “Enzyme Linked Immunosorbent Assay” (ELISA).
HaCaT cells were cultivated under the conditions explained in detail in Wertz et al., Free Radical Biology & Medicine, Vol. 37, No. 5, pp. 654-670, 2004. Cells were pre-cultivated in medium containing with lycopene at a concentration of 1 μmol/L for 48 h to give the cells sufficient time to accumulate lycopene. Lycopene was solubilized in a stock solution with Tetrahydrofuran (THF) and diluted into the medium such that the end concentration was 0.1% THF. […] Cells were harvested by trypsinisation and counted according to standard procedures. Il6 levels in the medium were standardized to the number of cells in the wells and expressed as pg/10^6 cells
This experiment was performed to investigate whether two other carotenoid representatives, beta-carotene and beta-cryptoxanthin, are able to reduce the general base line production of inflammatory mediators of normal skin

The subject of assay [2] is Interleukin (IL)6. The assay is described as follows: TNFα-stimulated HaCaT keratinocytes, release of IL6 into the medium (ELISA), Experiment 1. Here is the method:
as §1
HaCaT cells were cultivated under the conditions explained in detail in Wertz et al., Free Radical Biology & Medicine, Vol. 37, No. 5, pp. 654-670, 2004. Cells were pre-cultivated in medium containing with lycopene at a concentration of 1 μmol/L for 48 h to give the cells sufficient time to accumulate lycopene. Lycopene was solubilized in a stock solution with Tetrahydrofuran (THF) and diluted into the medium such that the end concentration was 0.1% THF. After the pre-incubation period, cells were stimulated with […] TNFα for 5 h, after which the medium was collected and frozen. Cells were harvested by trypsinisation and counted according to standard procedures. Il6 levels in the medium were standardized to the number of cells in the wells and expressed as pg/10^6 cells

For a further assay, the system named is HBD2. Description: Cytokine mix-induced keratinocyte inflammation model, HBD2 mRNA expression (real-time PCR). Particulars: NHEK; for HBD2, % compared to the control treated only with cytokine mix: 2 h pre-treatment, cytokine mix 24 h. Here is the method: (§2) Two assays were performed to investigate the effect of selected compounds of this invention in an inflammation model with human skin keratinocytes.
(§3) In this model, the association of 3 cytokines that induce a strong synergistic effect on keratinocytes in culture (Boniface K, Diveu C, Morel F, Pedretti N, Froger J, Ravon E, Garcia M, Venereau E, Preisser L, Guignouard E, Guillet G, Dagregorio G, Pene J, Moles J P, Yssel H, Chevalier S, Bernard F X, Gascan H, Lecron J C. Oncostatin M secreted by skin infiltrating T lymphocytes is a potent keratinocyte activator involved in skin inflammation. J Immunol. 2007 Apr. 1;178(7):4615-22), is used to measure the expression of selected markers for keratinocyte inflammation: the antibacterial/chemoattractive markers S100A7/psoriasin and defensin HBD2/4
(§4) Normal human epidermal keratinocytes (NHEK pool K015, 3e passage) were cultured under the following conditions: • Culture: 37° C., 5% CO2 • Culture medium: SFM (Invitrogen 17005075) • Epidermal Growth Factor 0.25 ng/ml and pituitary extract 25 μg/ml • (EGF, EP, Invitrogen 17005075) • Gentamycine 25 μg/ml (Sigma G1397) • Assay medium: SFM without EGF and pituitary extract (Invitrogen 17005075)
(§5) Keratinocytes were pre-cultivated in culture medium. At confluence, the culture medium was changed into assay medium (SFM without EGF and pituitary extract) containing or not (control) the test compounds and the cells were pre-treated for 2 h at 37° C. and 5% CO2. At the end of the pre-treatment, the cytokine mix consisting of oncostatin M (OSM), IL-17 and […], was added to the cultures for 24 h at 37° C. and 5% CO2 (a non-treated and non-stimulated control was run in parallel). At the end of the experiment, the cells were washed in PBS buffer (Invitrogen 14190094) and immediately frozen at −80° C. with 300 μl per well of Tri-reagent (Sigma T9424).
(§6) Primers couples allowing the amplification of a specific PCR product from each selected marker were used. Liver glyceraldehyde 3-phosphate dehydrogenase (G3PDH) was used as a reference marker in this experiment.
Defensin beta 4 (DEFB4), beta-defensin 2 (hBD2, DEFB2);
skin-antimicrobial peptide 1 (SAP1) HBD2 NM_004942
(§7) RNA Extraction and Reverse Transcription • Extraction of total RNA by Tri-Reagent according to the protocol recommended by the supplier. • Elimination of contaminant DNA by DNAse treatment using the “DNA-free” system (Ambion). • Reverse-transcription of mRNA in the presence of oligo(dT) and Superscript II reversetranscriptase (Invitrogen).
(§8) The PCR reactions (Polymerase Chain Reactions) were performed using the LightCycler® system (Roche Molecular Systems Inc.) according to the protocol recommended by the supplier. This system allows rapid and powerful PCR reactions.
(§9) The reaction mix (10 μl final) was added as follows: • 2.5 μl of cDNA diluted at 1/10e. • primers forward and reverse • reagent mix (Roche) containing tag DNA polymerase, SYBR Green I and MgCl2.
(§10) The incorporation of fluorescence in amplified DNA was measured continuously during the PCR cycles. […] The RE value was expressed in arbitrary units (AU) according to the formula:
(§11) (½ number of cycles)×10^6

The subject of another assay is S100A7/psoriasin. Description: Cytokine mix-induced keratinocyte inflammation model, S100A7 mRNA expression (real-time PCR). Particulars: NHEK; for S100A7, % compared to the control treated only with cytokine mix: 2 h pre-treatment, cytokine mix 24 h. Here is the method: as §2, §3, §4, §5, §6, §7, §8, §9, §10, §11

With `CC1=C(/C=C/C(C)=C/C=C/C(C)=C/C=C/C=C(C)/C=C/C=C(C)/C=C/C2=C(C)CCCC2(C)C)C(C)(C)CCC1` [Beta-carotene, beta-carotene], the “Effect on base line IL6 secretion (in words)” value in the assay with Interleukin (IL)6 [1] was “can reduce the base line level”. Moreover, the “IL6 pg/10^6 cells ± SD” value was determined as 315.86 pg/10^6 cells with Interleukin (IL)6 [1] (0.1 μmol/L), 225.15 pg/10^6 cells with Interleukin (IL)6 [1] (0.25 μmol/L), 241.8 pg/10^6 cells with Interleukin (IL)6 [1] (1.0 μmol/L) and 291.85 pg/10^6 cells in the assay on Interleukin (IL)6 [1] (3.0 μmol/L).
`CC(C)=CCC/C(C)=C/C=C/C(C)=C/C=C/C(C)=C/C=C/C=C(C)/C=C/C=C(C)/C=C/C=C(\C)CCC=C(C)C` [Lycopene, lycopene]: the “Effect on reaction of keratinocytes to pro-inflammatory stimulus (in words)” value in the assay on Interleukin (IL)6 [2] is given as “significantly reduce”.
For the compound `OCCc1ccc(O)c(O)c1` [Hydroxytyrosol, hydroxytyrosol], the “HBD2, % compared to the control treated only with cytokine mix” value (shortened to “HBD2, %”) with HBD2 (0.2 μmol/L) was determined as 50%; in the assay on HBD2 (1.0 μmol/L), 51%; in the assay on HBD2 (5.0 μmol/L), 40%. In addition, the figures for the “S100A7, % compared to the control treated only with cytokine mix” value with S100A7/psoriasin (0.2 μmol/L), with S100A7/psoriasin (1.0 μmol/L) and in the assay on S100A7/psoriasin (5.0 μmol/L) were 60%, 57% and 49%, respectively.
For `CC1=C(/C=C/C(C)=C/C=C/C(C)=C/C=C/C=C(C)/C=C/C=C(C)/C=C/C2=C(C)C[C@@H](O)CC2(C)C)C(C)(C)CCC1` [Beta-cryptoxanthin, beta-cryptoxanthin], the “Effect on base line IL6 secretion (in words)” value with Interleukin (IL)6 [1] is given as “moderate effect”. Also, the “IL6 pg/10^6 cells ± SD” value in the assay on Interleukin (IL)6 [1] (0.1 μmol/L) was found to be 264.76 pg/10^6 cells; in the assay on Interleukin (IL)6 [1] (0.25 μmol/L), 268.46 pg/10^6 cells; in the assay on Interleukin (IL)6 [1] (0.5 μmol/L) it was 286.77 pg/10^6 cells.
Regarding `Oc1ccc(C=Cc2cc(O)cc(O)c2)cc1` [Resveratrol, resveratrol], the “HBD2, %” value amounted to 61% with HBD2 (0.2 μmol/L), 51% with HBD2 (1.0 μmol/L) and 47% with HBD2 (5.0 μmol/L). Besides, the “Effect on cytokine mix induction of HBD2/4 mRNA (in words)” value in the assay with HBD2 is reported as “strongly inhibited”. Also, the “S100A7, % compared to the control treated only with cytokine mix” value in the assay with S100A7/psoriasin (0.2 μmol/L) is reported as 68%; in the assay on S100A7/psoriasin (1.0 μmol/L), 66%; with S100A7/psoriasin (5.0 μmol/L), 53%. Moreover, the “Effect on cytokine mix induction of S100A7 mRNA (in words)” value with S100A7/psoriasin is on record as “strongly inhibited”.
For (−)-Epigallocatechin gallate [EGCG], the “HBD2, %” value in the assay with HBD2 (0.2 μmol/L) is 59%; with HBD2 (1.0 μmol/L), 43%; in the assay on HBD2 (5.0 μmol/L), 33%. Moreover, the “Effect on cytokine mix induction of HBD2/4 mRNA (in words)” value in the assay with HBD2 is recorded as “strongly inhibited”. Further, the “S100A7, % compared to the control treated only with cytokine mix” value with S100A7/psoriasin (0.2 μmol/L) was 66%; with S100A7/psoriasin (1.0 μmol/L) it was 20%; with S100A7/psoriasin (5.0 μmol/L), 27%. Further, in the assay with S100A7/psoriasin, the “Effect on cytokine mix induction of S100A7 mRNA (in words)” value is given as “strongly inhibited”.

These data come from patent publication US20100080762A1, “SKIN CARE COMPOSITION” (priority 2006, published 2010).
